Experimental data reported in article PMC12198282, “Application of a high-density microelectrode array assay using a 3D human iPSC-derived brain microphysiological system model for in vitro neurotoxicity screening of environmental compounds” (Archives of Toxicology, 2025).
Like-named read-outs stand apart in the source and are kept apart here.

How the values were obtained:
[1] = tested on: human iPSC-derived 3D BrainSpheres; test: BrainSphere MEA assay (HD-MEA, 13-day exposure, concentration-response); assay type: cell-based; details: for AC50: concentration at 50% maximal activity, Supplement 3 prints it also for curves with hit call 0; on hitc Mean.Spheroid.Burst.Duration: key: 1 (active); 0 (inactive); on hitc Mean.Spheroid.Burst.ISI: key: 1 (active); 0 (inactive); on hitc Mean.Spheroid.Burst.Peak.Firing.Rate: key: 1 (active); 0 (inactive); on hitc Mean.Spheroid.Firing.Rate: key: 1 (active); 0 (inactive); on hitc Mean.Spheroid.IBI: key: 1 (active); 0 (inactive); on hitc Mean.Spheroid.Nonburst.ISI: key: 1 (active); 0 (inactive); on hitc Mean.Spheroid.Spikes.per.Burst.per.Electrode: key: 1 (active); 0 (inactive); on hitc Mean.Spheroid.Spikes.per.Burst: key: 1 (active); 0 (inactive); on hitc Spheroid.Burst.Frequency: key: 1 (active); 0 (inactive); on hitc Spheroid.Spike.Amplitude.90th.Percentile: key: 1 (active); 0 (inactive)
Summary of the method: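 Recordings used a 5× RMS spike threshold and 600 s network scans of fixed electrode regions, each region clustered as one BrainSphere. Spheres had 7 weeks of differentiation and 48 h attachment on coated HD-MEA chips before day 0 of the 13-day concentration-response exposure. At least three independent plates were run.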

2D rat cortical cultures [2] = details: cited from earlier work; for AC50: rNFA mc5
2D rat cortical cultures [3] = details: cited from earlier work
2D rat cortical cultures [4] = details: cytotoxicity LDH, cited from earlier work
[5] = AUC over 13-day exposure, tcplfit2
[6] = tcplfit2 BMD at benchmark response (1.349*SD of baseline controls)
[7] = tcplfit2 output ACC, activity cutoff in Supplemental Table 1
[8] = top of winning model, response normalized as percent of vehicle control, negative = decrease
Wherever hitc CCTE Shafer MEA dev active electrodes number is given: key: 1 (active); 0 (inactive).
Wherever hitc CCTE Shafer MEA dev burst duration mean is given: key: 1 (active); 0 (inactive).
Wherever hitc CCTE Shafer MEA dev burst rate is given: key: 1 (active); 0 (inactive).
Wherever hitc CCTE Shafer MEA dev bursting electrodes number is given: key: 1 (active); 0 (inactive).
Wherever hitc CCTE Shafer MEA dev correlation coefficient mean is given: key: 1 (active); 0 (inactive).
Wherever hitc CCTE Shafer MEA dev firing rate mean is given: key: 1 (active); 0 (inactive).
Wherever hitc CCTE Shafer MEA dev inter network spike interval mean is given: key: 1 (active); 0 (inactive).
Wherever hitc CCTE Shafer MEA dev interburst interval mean is given: key: 1 (active); 0 (inactive).
Wherever hitc CCTE Shafer MEA dev mutual information norm is given: key: 1 (active); 0 (inactive).
Wherever hitc CCTE Shafer MEA dev network spike duration std is given: key: 1 (active); 0 (inactive).
Wherever hitc CCTE Shafer MEA dev network spike number is given: key: 1 (active); 0 (inactive).
Wherever hitc CCTE Shafer MEA dev network spike peak is given: key: 1 (active); 0 (inactive).
Wherever hitc CCTE Shafer MEA dev per burst interspike interval is given: key: 1 (active); 0 (inactive).
Wherever hitc CCTE Shafer MEA dev per burst spike percent is given: key: 1 (active); 0 (inactive).
Wherever hitc CCTE Shafer MEA dev per network spike spike number mean is given: key: 1 (active); 0 (inactive).
Wherever hitc CCTE Shafer MEA dev per network spike spike percent is given: key: 1 (active); 0 (inactive).
Wherever hitc CCTE Shafer MEA dev spike duration mean is given: key: 1 (active); 0 (inactive).

Brc1ccc(Oc2ccc(Br)cc2Br)c(Br)c1 [BDE- 47]
EC50 ([1]; 5th percentile across active AC50 values per chemical, read-out: Minimum potency): 8.22 µM
Difference of minimum potency between BrainSphere MEA assay and rNFA ([1]; 5th percentile of AC50 values by chemical, above 0.5 = more potent in the rNFA): more than 0.5 log10 µM
hitc Mean.Spheroid.Burst.Duration [1, 5]: 1
hitc Mean.Spheroid.Burst.ISI [1, 5]: 1
hitc Mean.Spheroid.Burst.Peak.Firing.Rate [1, 5]: 1
hitc Mean.Spheroid.Firing.Rate [1, 5]: 1
hitc Mean.Spheroid.IBI [1, 5]: 0
hitc Mean.Spheroid.Nonburst.ISI [1, 5]: 0
hitc Mean.Spheroid.Spikes.per.Burst [1, 5]: 1
hitc Mean.Spheroid.Spikes.per.Burst.per.Electrode [1, 5]: 1
hitc Spheroid.Burst.Frequency [1, 5]: 1
hitc Spheroid.Spike.Amplitude.90th.Percentile [1, 5]: 1
AC50 ([1]; listed as BDE-47, read-out: ac50 Mean.Spheroid.Burst.Duration): 14.4 µM
AC50 ([1]; listed as BDE-47, read-out: ac50 Mean.Spheroid.Burst.Peak.Firing.Rate): 9.74 µM
AC50 ([1]; listed as BDE-47, read-out: ac50 Mean.Spheroid.Firing.Rate): 7.84 µM
AC50 ([1]; listed as BDE-47, read-out: ac50 Spheroid.Burst.Frequency): 8.92 µM
AC50 ([1]; listed as BDE-47, read-out: ac50 Spheroid.Spike.Amplitude.90th.Percentile): 13.4 µM
AC50 ([1]; listed as BDE−47, read-out: ac50 Mean.Spheroid.Burst.Duration): 14 µM
AC50 ([1]; listed as BDE−47, read-out: ac50 Mean.Spheroid.Burst.Peak.Firing.Rate): 9.7 µM
AC50 ([1]; listed as BDE−47, read-out: ac50 Mean.Spheroid.Firing.Rate): 7.8 µM
AC50 ([1]; listed as BDE−47, read-out: ac50 Spheroid.Burst.Frequency): 8.9 µM
AC50 ([1]; listed as BDE−47, read-out: ac50 Spheroid.Spike.Amplitude.90th.Percentile): 13 µM
AC50 ([1]; read-out: ac50 Mean.Spheroid.Burst.ISI): 13.4 µM
AC50 ([1]; read-out: ac50 Mean.Spheroid.IBI): 45 µM
AC50 ([1]; read-out: ac50 Mean.Spheroid.Spikes.per.Burst): 14.3 µM
AC50 ([1]; read-out: ac50 Mean.Spheroid.Spikes.per.Burst.per.Electrode): 8.93 µM
EC50 ([1]; mean across active AC50 values per chemical, read-out: Mean potency): 11.4 µM
Percent active ([1]; metrics active out of the total number of metrics screened): 80%
BMD Mean.Spheroid.Burst.Duration [1, 6]: 8.9 µM
BMD Mean.Spheroid.Burst.ISI [1, 6]: 7.8 µM
BMD Mean.Spheroid.Burst.Peak.Firing.Rate [1, 6]: 7.1 µM
BMD Mean.Spheroid.Firing.Rate [1, 6]: 7.9 µM
BMD Mean.Spheroid.IBI [1, 6]: 34 µM
BMD Mean.Spheroid.Nonburst.ISI [1, 6]: 48 µM
BMD Mean.Spheroid.Spikes.per.Burst [1, 6]: 12 µM
BMD Mean.Spheroid.Spikes.per.Burst.per.Electrode [1, 6]: 7 µM
BMD Spheroid.Burst.Frequency [1, 6]: 10 µM
BMD Spheroid.Spike.Amplitude.90th.Percentile [1, 6]: 6.7 µM
ACC Mean.Spheroid.Burst.Duration [1, 7]: 7.9 µM
ACC Mean.Spheroid.Burst.ISI [1, 7]: 4.8 µM
ACC Mean.Spheroid.Burst.Peak.Firing.Rate [1, 7]: 6.6 µM
ACC Mean.Spheroid.Firing.Rate [1, 7]: 11 µM
ACC Mean.Spheroid.IBI [1, 7]: 50 µM
ACC Mean.Spheroid.Nonburst.ISI [1, 7]: 55 µM
ACC Mean.Spheroid.Spikes.per.Burst [1, 7]: 17 µM
ACC Mean.Spheroid.Spikes.per.Burst.per.Electrode [1, 7]: 8.2 µM
ACC Spheroid.Burst.Frequency [1, 7]: 8.5 µM
ACC Spheroid.Spike.Amplitude.90th.Percentile [1, 7]: 9.5 µM
Top Mean.Spheroid.Burst.Duration [1, 8]: −93
Top Mean.Spheroid.Burst.ISI [1, 8]: −93
Top Mean.Spheroid.Burst.Peak.Firing.Rate [1, 8]: −93
Top Mean.Spheroid.Firing.Rate [1, 8]: −92
Top Mean.Spheroid.IBI [1, 8]: −81
Top Mean.Spheroid.Nonburst.ISI [1, 8]: −74
Top Mean.Spheroid.Spikes.per.Burst [1, 8]: −93
Top Mean.Spheroid.Spikes.per.Burst.per.Electrode [1, 8]: −92
Top Spheroid.Burst.Frequency [1, 8]: −95
Top Spheroid.Spike.Amplitude.90th.Percentile [1, 8]: −22
Hits ([1]; total number of active endpoints out of 10 MEA activity metrics, 13-day exposure): 8
AC50 (2D rat cortical cultures [2]; aenm active_electrodes_number, read-out: ac50 CCTE_Shafer_MEA_dev_active_electrodes_number): 10 µM
AC50 (2D rat cortical cultures [2]; aenm bursting_electrodes_number, read-out: ac50 CCTE_Shafer_MEA_dev_bursting_electrodes_number): 0.023 µM
AC50 (2D rat cortical cultures [2]; aenm correlation_coefficient_mean, read-out: ac50 CCTE_Shafer_MEA_dev_correlation_coefficient_mean): 4.26 µM
AC50 (2D rat cortical cultures [2]; aenm mutual_information_norm, read-out: ac50 CCTE_Shafer_MEA_dev_mutual_information_norm): 0.013 µM
AC50 (2D rat cortical cultures [2]; aenm network_spike_peak, read-out: ac50 CCTE_Shafer_MEA_dev_network_spike_peak): 10 µM
AC50 (2D rat cortical cultures [2]; aenm per_burst_spike_percent, read-out: ac50 CCTE_Shafer_MEA_dev_per_burst_spike_percent): 14.2 µM
AC50 (2D rat cortical cultures [2]; aenm per_network_spike_spike_number_mean, read-out: ac50 CCTE_Shafer_MEA_dev_per_network_spike_spike_number_mean): 4 µM
AC50 (2D rat cortical cultures [2]; aenm per_network_spike_spike_percent, read-out: ac50 CCTE_Shafer_MEA_dev_per_network_spike_spike_percent): 15.1 µM
AC50 (2D rat cortical cultures [2]; aenm spike_duration_mean, read-out: ac50 CCTE_Shafer_MEA_dev_spike_duration_mean): 15 µM
hitc CCTE_Shafer_MEA_dev_active_electrodes_number (2D rat cortical cultures [2]; rNFA mc5 hit call, aenm active_electrodes_number): 1
hitc CCTE_Shafer_MEA_dev_burst_duration_mean (2D rat cortical cultures [2]; rNFA mc5 hit call, aenm burst_duration_mean): 0
hitc CCTE_Shafer_MEA_dev_burst_rate (2D rat cortical cultures [2]; rNFA mc5 hit call, aenm burst_rate): 0
hitc CCTE_Shafer_MEA_dev_bursting_electrodes_number (2D rat cortical cultures [2]; rNFA mc5 hit call, aenm bursting_electrodes_number): 1
hitc CCTE_Shafer_MEA_dev_correlation_coefficient_mean (2D rat cortical cultures [2]; rNFA mc5 hit call, aenm correlation_coefficient_mean): 1
hitc CCTE_Shafer_MEA_dev_firing_rate_mean (2D rat cortical cultures [2]; rNFA mc5 hit call, aenm firing_rate_mean): 0
hitc CCTE_Shafer_MEA_dev_inter_network_spike_interval_mean (2D rat cortical cultures [2]; rNFA mc5 hit call, aenm inter_network_spike_interval_mean): 0
hitc CCTE_Shafer_MEA_dev_interburst_interval_mean (2D rat cortical cultures [2]; rNFA mc5 hit call, aenm interburst_interval_mean): 0
hitc CCTE_Shafer_MEA_dev_mutual_information_norm (2D rat cortical cultures [2]; rNFA mc5 hit call, aenm mutual_information_norm): 1
hitc CCTE_Shafer_MEA_dev_network_spike_duration_std (2D rat cortical cultures [2]; rNFA mc5 hit call, aenm network_spike_duration_std): 0
hitc CCTE_Shafer_MEA_dev_network_spike_number (2D rat cortical cultures [2]; rNFA mc5 hit call, aenm network_spike_number): 0
hitc CCTE_Shafer_MEA_dev_network_spike_peak (2D rat cortical cultures [2]; rNFA mc5 hit call, aenm network_spike_peak): 1
hitc CCTE_Shafer_MEA_dev_per_burst_interspike_interval (2D rat cortical cultures [2]; rNFA mc5 hit call, aenm per_burst_interspike_interval): 0
hitc CCTE_Shafer_MEA_dev_per_burst_spike_percent (2D rat cortical cultures [2]; rNFA mc5 hit call, aenm per_burst_spike_percent): 1
hitc CCTE_Shafer_MEA_dev_per_network_spike_spike_number_mean (2D rat cortical cultures [2]; rNFA mc5 hit call, aenm per_network_spike_spike_number_mean): 1
hitc CCTE_Shafer_MEA_dev_per_network_spike_spike_percent (2D rat cortical cultures [2]; rNFA mc5 hit call, aenm per_network_spike_spike_percent): 1
hitc CCTE_Shafer_MEA_dev_spike_duration_mean (2D rat cortical cultures [2]; rNFA mc5 hit call, aenm spike_duration_mean): 1
hitc CCTE_Shafer_MEA_dev_AB (2D rat cortical cultures [3]; rNFA mc5 hit call, cytotoxicity AlamarBlue): 1
AC50 (2D rat cortical cultures [3]; read-out: ac50 CCTE_Shafer_MEA_dev_AB, rNFA mc5, cytotoxicity AlamarBlue): 8.31 µM
Cytotoxicity in the resazurin assay of the rNFA (in words) (2D rat cortical cultures [3]; ref Brown et al. [2016], Carstens et al. [2022], Frank et al. [2017b], Shafer et al. [2019], ToxCast invitrodb (v4.2)): demonstrating cytotoxicity in the rNFA
hitc CCTE_Shafer_MEA_dev_LDH (2D rat cortical cultures [4]; rNFA mc5 hit call): 1
AC50 (2D rat cortical cultures [4]; read-out: ac50 CCTE_Shafer_MEA_dev_LDH, rNFA mc5): 12.3 µM
